Reference: US20060247862A1, “Determining cell cycle phase data” (priority 2003, published 2006)

Test system: U2OS cells
Test: Effect of cell cycle blocking agents on GFP fluorescence from cell cycle phase marker using transiently transfected cells
Type: cell-based
Settings: U2OS cells transiently transfected with cyclin B1 promoter/D-box/CRS-GFP construct; 24 hours exposure; compared to control cells (culture media alone); confocal imaging
Protocol: U2OS cells (ATCC HTB-96) were cultured in wells of a 96 well microtitre plate. Cells were transfected with a cell cycle reporter construct prepared according to Example 1, comprising a cyclin B1 promoter operably linked to sequences encoding the cyclin B1 D-box, the cyclin B1 CRS, and GFP in a pCORON4004 vector (Amersham Biosciences) using Fugene 6 (Roche) as the transfection agent.
Following 24 hours of culture, cells were exposed to the specific cell cycle blockers mimosine (blocks at G1/S phase boundary) or demecolcine (blocks in M phase). Control cells were exposed to culture media alone.
Cells were incubated for a further 24 hours and then analysed for nuclear GFP expression using a confocal scanning imager with automated image analysis (IN Cell Analysis System, Amersham Biosciences).

Row | SMILES | GFP fluorescence (nuclear GFP expression) from cell cycle phase marker
1 | CN[C@H]1CCc2cc(OC)c(OC)c(OC)c2-c2ccc(OC)c(=O)cc21 [demecolcine] | increased fluorescence compared to control cells
2 | NC(Cn1ccc(=O)c(O)c1)C(=O)O (centres unmarked) [mimosine] | decreased fluorescence compared to control cells
